Data taken from patent US20240000872A1, “NOVEL BACTERIOPHAGE THAT LYSES ACINETOBACTER GENUS BACTERIA HAVING RESISTANCE TO ANTIBIOTICS” (priority 2020, published 2024).

Test system: Acinetobacter baumannii strains
Assay: Antibiotic susceptibility test (CLSI disk diffusion test method, read per CLSI 2016); further: key: ‘S’ means susceptible; ‘I’ means intermediate; ‘R’ means resistant
Assay type: cell-based

## CCN1CCN(C(=O)N[C@@H](C(=O)N[C@@H]2C(=O)N3[C@@H]2SC(C)(C)[C@@H]3C(=O)O)c2ccccc2)C(=O)C1=O [Piperacillin, piperacillin]
Host strain YMC14/01/C29
  antibiotic susceptibility class: R
Host strain YMC14/01/IP122
  antibiotic susceptibility class: R
Host strain YMC14/01/L8
  antibiotic susceptibility class: R
Host strain YMC14/01/P31
  antibiotic susceptibility class: R
Host strain YMC14/01/P117
  antibiotic susceptibility class: R
Host strain YMC14/01/P224
  antibiotic susceptibility class: R
Host strain YMC14/01/P727
  antibiotic susceptibility class: R
Host strain YMC14/01/P728
  antibiotic susceptibility class: R
Host strain YMC14/01/R130
  antibiotic susceptibility class: R
Host strain YMC14/01/R160
  antibiotic susceptibility class: R
Host strain YMC14/01/R198
  antibiotic susceptibility class: R
Host strain YMC14/01/R257
  antibiotic susceptibility class: R
Host strain YMC14/01/R270
  antibiotic susceptibility class: R
Host strain YMC14/01/R324
  antibiotic susceptibility class: R
Host strain YMC14/01/R443
  antibiotic susceptibility class: R
Host strain YMC14/01/R451
  antibiotic susceptibility class: R
Host strain YMC14/01/R560
  antibiotic susceptibility class: R
Host strain YMC14/01/R617
  antibiotic susceptibility class: R
Host strain YMC14/01/R671
  antibiotic susceptibility class: R
Host strain YMC14/01/R732
  antibiotic susceptibility class: R
Host strain YMC14/01/R767
  antibiotic susceptibility class: R
Host strain YMC14/01/R904
  antibiotic susceptibility class: R
Host strain YMC14/01/R905
  antibiotic susceptibility class: R
Host strain YMC14/01/R921
  antibiotic susceptibility class: R
Host strain YMC14/01/R941
  antibiotic susceptibility class: R
Host strain YMC14/01/R958
  antibiotic susceptibility class: R
Host strain YMC14/01/R1006
  antibiotic susceptibility class: R
Host strain YMC14/01/R1199
  antibiotic susceptibility class: R
Host strain YMC14/01/R1659
  antibiotic susceptibility class: R
Host strain YMC14/01/R1722
  antibiotic susceptibility class: R
Host strain YMC14/01/R1752
  antibiotic susceptibility class: R
Host strain YMC14/01/R2429
  antibiotic susceptibility class: R
Host strain YMC14/01/R2572
  antibiotic susceptibility class: R
Host strain YMC14/01/R2855
  antibiotic susceptibility class: R
Host strain YMC14/01/R2945
  antibiotic susceptibility class: R
Host strain YMC14/01/R3007
  antibiotic susceptibility class: R
Host strain YMC14/01/R3129
  antibiotic susceptibility class: R
Host strain YMC14/01/R3317
  antibiotic susceptibility class: R
Host strain YMC14/01/R3474
  antibiotic susceptibility class: R
Host strain YMC14/01/R3574
  antibiotic susceptibility class: R
Host strain YMC14/01/U313
  antibiotic susceptibility class: R
Host strain YMC14/01/U318
  antibiotic susceptibility class: R
Host strain YMC14/02/L18
  antibiotic susceptibility class: R
Host strain YMC14/02/P47
  antibiotic susceptibility class: R
Host strain YMC14/02/R1860
  antibiotic susceptibility class: R
Host strain YMC14/02/R2417
  antibiotic susceptibility class: R
Host strain YMC14/02/R2599
  antibiotic susceptibility class: R
Host strain YMC14/02/R2668
  antibiotic susceptibility class: R
Host strain YMC14/02/R2758
  antibiotic susceptibility class: R
Host strain YMC14/02/R2781
  antibiotic susceptibility class: R
Host strain YMC14/02/R3106
  antibiotic susceptibility class: R
Host strain YMC14/02/R3419
  antibiotic susceptibility class: R
Host strain YMC14/02/U1607
  antibiotic susceptibility class: R
Host strain YMC14/03/L9
  antibiotic susceptibility class: R
Host strain YMC14/03/P471
  antibiotic susceptibility class: R
Host strain YMC14/03/R122
  antibiotic susceptibility class: R
Host strain YMC14/03/R217
  antibiotic susceptibility class: R
Host strain YMC14/03/R380
  antibiotic susceptibility class: R
Host strain YMC14/03/R618
  antibiotic susceptibility class: R
Host strain YMC14/03/R2144
  antibiotic susceptibility class: R
Host strain YMC14/03/U4616
  antibiotic susceptibility class: R
Host strain YMC14/04/R1078
  antibiotic susceptibility class: R
Host strain YMC14/04/R1080
  antibiotic susceptibility class: R
Host strain YMC14/06/R2359
  susceptibility category (S/I/R): R
Host strain YMC14/08/R1169
  susceptibility category (S/I/R): R
Host strain YMC14/08/T90
  susceptibility category (S/I/R): R
Host strain YMC15/02/R436
  susceptibility category (S/I/R): R
Host strain YMC15/02/T28
  susceptibility category (S/I/R): R
Host strain YMC15/03/R1604
  susceptibility category (S/I/R): R
Host strain YMC15/09/R1869
  susceptibility category (S/I/R): R
Host strain YMC16/01/P11
  susceptibility category (S/I/R): R
Host strain YMC16/01/R123
  susceptibility category (S/I/R): R
Host strain YMC16/01/R198
  susceptibility category (S/I/R): R
Host strain YMC16/01/R353
  susceptibility category (S/I/R): R
Host strain YMC16/01/R380
  susceptibility category (S/I/R): R
Host strain YMC16/01/R397
  susceptibility category (S/I/R): R
Host strain YMC16/01/R405
  susceptibility category (S/I/R): R
Host strain YMC16/03/R4461
  susceptibility category (S/I/R): R
Host strain YMC16/05/R2210
  susceptibility category (S/I/R): R
Host strain YMC16/07/R2512
  susceptibility category (S/I/R): R
Host strain YMC16/09/R2471
  susceptibility category (S/I/R): R
Host strain YMC16/10/R2537
  susceptibility category (S/I/R): R
Host strain YMC16/12/B11422
  susceptibility category (S/I/R): R
Host strain YMC16/12/B11449
  susceptibility category (S/I/R): R
Host strain YMC16/12/B13325
  susceptibility category (S/I/R): R
Host strain YMC16/12/P503
  susceptibility category (S/I/R): R
Host strain YMC16/12/R4637
  susceptibility category (S/I/R): R
Host strain YMC17/01/B8053
  susceptibility category (S/I/R): R
Host strain YMC17/01/B10087
  susceptibility category (S/I/R): R
Host strain YMC17/01/B12075
  susceptibility category (S/I/R): R
Host strain YMC17/01/B13454
  susceptibility category (S/I/R): R
Host strain YMC17/01/P518
  susceptibility category (S/I/R): R
Host strain YMC17/01/R2812
  susceptibility category (S/I/R): R
Host strain YMC17/02/B14
  susceptibility category (S/I/R): R
Host strain YMC17/02/B87
  susceptibility category (S/I/R): R
Host strain YMC17/02/B721
  susceptibility category (S/I/R): R
Host strain YMC17/02/B4039
  susceptibility category (S/I/R): R
Host strain YMC17/02/B4520
  susceptibility category (S/I/R): R
Host strain YMC17/02/B4864
  susceptibility category (S/I/R): S
Host strain YMC17/02/B8414
  susceptibility category (S/I/R): R
Host strain YMC17/02/P523
  susceptibility category (S/I/R): R
Host strain YMC17/02/R541
  susceptibility category (S/I/R): R
Host strain YMC17/02/R2392
  susceptibility category (S/I/R): R
Host strain YMC17/03/B4730
  susceptibility category (S/I/R): R
Host strain YMC17/03/B5000
  susceptibility category (S/I/R): R
Host strain YMC17/03/P971
  susceptibility category (S/I/R): R
Host strain YMC17/03/R348
  susceptibility category (S/I/R): R
Host strain YMC17/03/R585
  susceptibility category (S/I/R): R
Host strain YMC17/03/R1888
  susceptibility category (S/I/R): R
Host strain YMC17/03/R3279
  susceptibility category (S/I/R): R
Host strain YMC17/03/R4077
  susceptibility category (S/I/R): R
Host strain YMC17/03/R4607
  susceptibility category (S/I/R): R
Host strain YMC17/04/R488
  susceptibility category (S/I/R): R
Host strain YMC17/04/R640
  susceptibility category (S/I/R): R
Host strain YMC/17/05/R1095
  susceptibility category (S/I/R): R
